Patent US4016193A, “Novel substituted phenylacetic acid derivatives and a process for preparing thereof” (Mitsubishi Yuka Pharmaceutical Co., Ltd., priority 1974, dated 1977)
Read-outs that look alike come from different tables or passages of the source.

Columns and labels:
[1] = test system: carrageenin edema; assay: Anti-inflammatory activity: inhibition of carrageenin edema of the rat paw, oral; assay type: in vivo, wistar male rats; conditions: read-out: inhibiting rate; for inhibition in vivo at 12.5 mg/kg: 12.5 mg/kg orally; for inhibition in vivo at 12.5 mg/kg / inhibition in vivo at 25 mg/kg / inhibition in vivo at 50 mg/kg / inhibition in vivo at 100 mg/kg: rats, 4 hours after carrageenin; for inhibition in vivo at 25 mg/kg: 25 mg/kg orally; for inhibition in vivo at 50 mg/kg: 50 mg/kg orally; for inhibition in vivo at 100 mg/kg: 100 mg/kg orally
Experimental: The anti-inflamatory activity is shown by inhibiting rate calculated from measurement of carrageenin edema intensity. Five wistar male rats having body weight of 120 - 180g are defined as one group and after fasted for 18 hours, the sample containing a 1% tragacanth solution such as is suspended so as to become 5 ml/kg was administered orally to the said group. Only the same volume of the 1% tragacanth solution was administered to the control group. After one hour, 0.05 ml of a 1% carrageenin (manufactured by Picnin-A, Pasco International Corp.) was injected subcutaneously to the plantar legion of right hind paw of rats. Before injection and after 4 hours of injection of carrageenin, the right hind paw volume was measured by means of paw volume measurement instrument manufactured by Ugo-Basile and an increase % of paw volume was calculated. The inhibiting rate was calculated from an increase ratio of the examined group against the central groups.

[2] = test system: writhing syndrome caused by acetic acid; assay: Analgesic activity, acetic acid writhing method, oral; assay type: in vivo, dd origin male mice; conditions: for ED50: Mus musculus, po, read-out: ED50 (analgesic activity); for activity ratio: ratio of ED50 values, methyl 3-nitro-4-allyloxyphenylacetate defined as 1
Experimental: (b) The analgesic activity was measured by means of acetic and writhing
10dd origin male mice weighing 17 -
25g were used as one group after 18 hours of fasting. After oral
administration of the test compounds the frequencies of writhing syndrome
caused by intraperitoneal administration of 0.1 ml/10g of a 0.6% acetic
acid were measured for 20 minutes. The frequencies of writhing syndrome
which are below 50% of those of the control group were defined as
analgesic activity (+) and the ED50 values were calculated by means of
Litchfield-Wilcoxon method. The ED50 value of methyl
3-nitro-4-allyloxyphenylacetate is defined as 1 and the activity ratios of
the test compounds were expressed as ratio of ED50 values. The test
compounds were administered as a suspension such as are adjusted to be 0.1
ml/10g in a 1% tragacanth solution. A 1% tragacanth solution was
administered to the control group.

[3] = in vivo; conditions: rat, po, orally, rats
[4] = orally, mice, 0.6% acetic acid i.p., Litchfield-Wilcoxon method

## C=CCOc1ccc(CC(=O)OC)cc1[N+](=O)[O-] [Methyl 3-nitro-4-allyloxyphenylacetate]
[1]
  inhibition in vivo at 12.5 mg/kg: 51.7%
  inhibition in vivo at 25 mg/kg: 72.1%
[2]; [4]
  ED50: 31 mg/kg
[3]; female
  LD50: > 3000 mg/kg
[3]; male
  LD50: > 3000 mg/kg

## CCCCC1C(=O)N(c2ccccc2)N(c2ccccc2)C1=O [Phenylbutazone]
[1]
  inhibition in vivo at 12.5 mg/kg: 14.1%
  inhibition in vivo at 25 mg/kg: 49.1%
  inhibition in vivo at 50 mg/kg: 59.4%

## CC(=O)Oc1ccccc1C(=O)O [Aspirin]
[2]
  ED50: 320 mg/kg
  activity ratio: 0.09

## C=CCOc1ccc(C(C)C(=O)O)cc1[N+](=O)[O-] (stereo not shown) [2-(3-nitro-4-allyloxyphenyl)propionic acid]
[1]
  inhibition in vivo at 100 mg/kg: 40.1%

## C=CCOc1ccc(C(C)C(=O)OCC)cc1[N+](=O)[O-] (stereo not shown) [Ethyl 2-(3-nitro-4-allyloxyphenyl)propionate]
[1]
  inhibition in vivo at 100 mg/kg: 55.5%

## C=CCOc1ccc(C(C)C(=O)OC)cc1[N+](=O)[O-] (stereo not shown) [Methyl 2-(3-nitro-4-allyoxyphenyl)propionate]
[1]
  inhibition in vivo at 100 mg/kg: 50.1%

## COc1ccc2c(c1)c(CC(=O)O)c(C)n2C(=O)c1ccc(Cl)cc1 [Indomethacine]
[1]; 4 h
  inhibition in vivo at 1 mg/kg: 39.8%
  inhibition in vivo at 3 mg/kg: 46%
  inhibition in vivo at 9 mg/kg: 60.4%

## COc1cc(C)nc(-n2nc(C)cc2OC)n1 [Mepirizole]
[1]
  inhibition in vivo at 25 mg/kg: 19.5%
  inhibition in vivo at 50 mg/kg: 51.8%
  inhibition in vivo at 100 mg/kg: 52.7%
[2]; [4]
  ED50: 117 mg/kg
[2]
  activity ratio: 0.26
[3]; female
  LD50: 971 mg/kg
[3]; male
  LD50: 1020 mg/kg

## C=CCOc1ccc(CC(=O)O)cc1[N+](=O)[O-] [3-Nitro-4-allyloxyphenylacetic acid]
[1]
  inhibition in vivo at 12.5 mg/kg: 13.9%
  inhibition in vivo at 25 mg/kg: 24.3%
  inhibition in vivo at 50 mg/kg: 66.6%
[2]; [4]
  ED50: 96 mg/kg
[2]
  activity ratio: 0.32
[3]; female
  LD50: 1360 mg/kg
[3]; male
  LD50: 1480 mg/kg

## Cc1c(N(C)C)c(=O)n(-c2ccccc2)n1C [Aminopyrine]
[2]; [4]
  ED50: 80 mg/kg
[2]
  activity ratio: 0.38

## C=CCOc1ccc(CC(=O)O)cc1Cl [3-chloro-4-allyloxyphenylacetic acid]
[1]
  inhibition in vivo at 25 mg/kg: 47%
  inhibition in vivo at 50 mg/kg: 51.8%
  inhibition in vivo at 100 mg/kg: 62%
[2]; [4]
  ED50: 56.8 mg/kg

## C#CCOc1ccc(CC(=O)O)cc1[N+](=O)[O-] [3-Nitro-4-propargyloxyphenylacetic acid]
[1]
  inhibition in vivo at 50 mg/kg: 28.8%
  inhibition in vivo at 100 mg/kg: 40.3%

## C#CCOc1ccc(CC(=O)OC)cc1[N+](=O)[O-] [Methyl 3-nitro-4-propargyloxyphenylacetate]
[1]
  inhibition in vivo at 100 mg/kg: 44.9%

## C=CCOc1ccc(CC(N)=O)cc1[N+](=O)[O-] [3-nitro-4-allyloxyphenylacetamide]
[1]
  inhibition in vivo at 100 mg/kg: 37.7%
